The values below come from ChEMBL document CHEMBL1154930, “N1-Heterocyclic pyrimidinediones as non-nucleoside inhibitors of HIV-1 reverse transcriptase” (Bioorg Med Chem Lett, 2010).

Data set [1] can be described thus: Volume of distribution at steady state in Beagle dog at 0.5 mg/kg, iv or 0.5 mg/kg, po. The conditions noted are these: in vivo, read-out: Vdss. The data set is classed as ADME, organism-based, Canis lupus familiaris.
Data set [2] is described as follows: Oral bioavailability in Beagle dog at 4 mg/kg, po. Format: ADME, organism-based, Canis lupus familiaris. The conditions noted are these: in vivo.
Data set [3] relates to Human immunodeficiency virus 1. Briefly: Antiviral activity against NNRTI-resistant HIV1 harboring reverse transcriptase K103N mutant infected in human MT2 cells. Format: functional, organism-based. The conditions noted are these: Human immunodeficiency virus 1, MT2.
A short description of data set [4]: Half life in human microsomes. Format: ADME, Microsome.
The subject of data set [5] is Human immunodeficiency virus 1. Briefly: Antiviral activity against wild type HIV1 infected in human MT2 cells. The data set is classed as functional, organism-based. The conditions noted are these: Human immunodeficiency virus 1, MT2.
The next data set addresses Albumin (Homo sapiens, UniProt P02768). Briefly: Binding affinity to human serum albumin. Format: ADME. The conditions noted are these: read-out: PB (converted).
Data set [6] is described as follows: Half life in Beagle dog at 0.5 mg/kg, iv or 0.5 mg/kg, po. The conditions noted are these: in vivo. Format: ADME, organism-based, Canis lupus familiaris.
The test system of data set [7] is Human immunodeficiency virus 1. Briefly: Antiviral activity against HIV1 harboring reverse transcriptase Y181C mutant infected in human MT2 cells. Format: functional, organism-based. The conditions noted are these: Human immunodeficiency virus 1, MT2.
A short description of data set [8]: Oral bioavailability in Beagle dog at 2 mg/kg, po. Format: ADME, organism-based, Canis lupus familiaris. The conditions noted are these: in vivo.
The nature of data set [9]: Half life in dog microsomes. The data set is classed as ADME, Canis lupus familiaris, Microsome.
The nature of data set [10]: Oral bioavailability in Beagle dog at 0.5 mg/kg, po. Format: ADME, organism-based, Canis lupus familiaris. The conditions noted are these: in vivo.

Sequence of Albumin (P02768 whole entry): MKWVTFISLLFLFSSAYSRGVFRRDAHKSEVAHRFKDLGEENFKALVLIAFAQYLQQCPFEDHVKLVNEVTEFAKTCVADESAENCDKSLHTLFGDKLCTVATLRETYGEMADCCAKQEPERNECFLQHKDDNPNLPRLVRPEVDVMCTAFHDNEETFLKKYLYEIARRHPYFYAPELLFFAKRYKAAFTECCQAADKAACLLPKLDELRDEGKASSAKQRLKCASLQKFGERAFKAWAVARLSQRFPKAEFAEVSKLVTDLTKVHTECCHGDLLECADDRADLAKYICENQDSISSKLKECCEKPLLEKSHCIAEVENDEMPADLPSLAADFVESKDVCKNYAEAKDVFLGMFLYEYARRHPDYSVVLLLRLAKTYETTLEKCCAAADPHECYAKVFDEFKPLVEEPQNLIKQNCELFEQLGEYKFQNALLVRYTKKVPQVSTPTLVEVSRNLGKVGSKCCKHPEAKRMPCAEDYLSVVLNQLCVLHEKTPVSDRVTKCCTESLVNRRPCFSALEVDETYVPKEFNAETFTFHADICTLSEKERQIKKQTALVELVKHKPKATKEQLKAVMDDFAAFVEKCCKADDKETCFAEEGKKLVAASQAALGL

A word on the bioavailability: it is the share of a dose that reaches the circulation, judged against a reference dose that is usually intravenous. High values mean much systemic uptake, low ones little systemic uptake. As a reminder, the EC50 is the concentration needed to bring the measured effect to its halfway point. Low readings indicate higher potency in that assay, high ones lower potency in that assay. What is called half-life is the time needed for the level to fall by half in the phase considered. A higher half-life goes with slow loss. As for `Cc1cc(C#N)cc(C(=O)c2c(C(C)C)c(=O)[nH]c(=O)n2Cc2cc(N)nc(F)c2)c1`, in data set [1], the Vd was 1.8 L/kg. Moreover, the bioavailability in data set [2] turned out to be 96%. Besides, the results for the EC50 in [3], in data set [5] and in data set [7] were 1.6 nM, 3.4 nM and 6.7 nM, respectively. Further, the half-life in data set [4] was 0.75 h; in [6], 3.3 h. Besides, the fraction unbound on Albumin was 0.064.
As to `Cc1cc(C#N)cc(C(=O)c2c(C(C)C)c(=O)[nH]c(=O)n2Cc2ccnc(F)c2)c1`, the Vd in data set [1] came out at 1.61 L/kg. In addition, the EC50 stood at 2.4 nM in data set [3], 6.2 nM in [5] and 16 nM in data set [7]. In addition, the values for the half-life in data set [4] and in data set [6] were 4.68 h and 4.7 h, respectively. For the same compound, the fraction unbound at Albumin is 0.123. The compound further yielded a bioavailability in data set [8] of 80%.
For `Cc1cc(C#N)cc(C)c1Oc1nc(Nc2ccc(C#N)cc2)nc(N)c1Br` [ETRAVIRINE], the figures for the EC50 in data set [3], in data set [5] and in data set [7] were 0.9 nM, 1.6 nM and 2.6 nM, respectively. Besides, the half-life in data set [4] is 2.33 h.
Take `O=C1Nc2ccc(Cl)cc2[C@@](C#CC2CC2)(C(F)(F)F)O1` [EFAVIRENZ]: the EC50 in data set [3] was determined as 35 nM; in data set [7], 2.6 nM. In addition, in data set [4], the half-life is 1.63 h.
On to `Cc1cc(C#N)cc(C(=O)c2c(C(C)C)c(=O)[nH]c(=O)n2Cc2cc(N)nc(F)c2F)c1`, for which the EC50 in data set [3] was 7.3 nM; in [5] it was 4.5 nM; in [7] it was 8.2 nM. The compound also registered a half-life in data set [4] of 0.85 h. Besides, on Albumin, the fraction unbound is 0.067.
For the compound `Cc1cc(C#N)cc(C(=O)c2c(C(C)C)c(=O)[nH]c(=O)n2Cc2cc(F)nc(F)c2)c1`, in [1], the Vd came out at 1.94 L/kg. Moreover, the EC50 in [3] worked out at 1.9 nM; in data set [5], 12.4 nM; in data set [7], 12 nM. The t1/2 entry in data set [4] and in [9] was “Stable” each time. Besides, the fraction unbound at Albumin is 0.058. The half-life in [6] is 4.9 h. In data set [10], this compound came in with a bioavailability of 41.5%.
